Read-outs that look alike come from different tables or passages of the source. Marks after values point to notes of the source that are not given here.
Assays:
MtInhA = molecular target: T1, MtInhA (Mycobacterium tuberculosis, UniProt P9WGR1); experiment: MtInhA enzyme inhibition by steady-state kinetics (NADH oxidation at 340 nm); type: biochemical; conditions: for Ki: EI complex; for mode of inhibition with respect to NADH / mode of inhibition with respect to DD-CoA: Lineweaver-Burk plot
T1 construct: made in house
T1 sequence (P9WGR1 whole entry, looked up): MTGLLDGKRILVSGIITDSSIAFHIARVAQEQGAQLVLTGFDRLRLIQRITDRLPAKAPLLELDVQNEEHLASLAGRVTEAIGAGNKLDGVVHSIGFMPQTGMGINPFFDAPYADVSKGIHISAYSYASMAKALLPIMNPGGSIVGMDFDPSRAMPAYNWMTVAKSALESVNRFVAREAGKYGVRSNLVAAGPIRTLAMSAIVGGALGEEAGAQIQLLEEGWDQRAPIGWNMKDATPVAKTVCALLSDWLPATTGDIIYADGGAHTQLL
Procedure: In order to assess the relative potency of the compounds, inhibition studies were performed by steady-state kinetic studies using a UV-2550 UV/Visible spectrophotometer (Shimadzu^©), monitoring the NADH oxidation at 340 nm (εβ-NADH = […]), in the forward direction. Experiments were performed at 25 °C, in 100 mM Pipes pH 7.0 and were started with the addition of the 2.2 μM MtInhA to a total reaction volume of 500 μL, and monitoring the change in absorbance for 1 min. […] This is needed as IC50 and classical competitive, non-competitive and uncompetitive inhibition modes follow a rapid equilibrium process. Accordingly, MtInhA (2.2 μM) was pre-incubated with inhibitor (10 μM), aliquots were taken at different times and added to the reaction mixture containing NADH (60 μM) and DD-CoA (45 μM), and initial velocity measurements were plotted as a function of time of pre-incubation[6]. Control experiments were carried out pre-incubating MtInhA (2.2 μM) with DMSO (5%) in the absence of inhibitors, and initial velocity measured as a function of time of pre-incubation[6].
The IC50 value, which defines the concentration of inhibitor required to […], was calculated for each compound. The maximal rate for the enzyme reaction was determined in the absence of inhibitor, in the presence of fixed non-saturating concentration of NADH (60 μM ≅ Km) and DD-CoA (45 μM ≅ Km)[10][11][14]. The reaction velocity was analyzed as the percentage of inhibition as a function of inhibitor concentration and data were fitted to Eq 1.
The most promising compounds were further evaluated to assess the inhibition profile and to determine the inhibition constant (Ki). Initial rates were measured as a function of NADH concentration (10–160 μM) at fixed non-saturating DD-CoA concentration (45 μM) and fixed-varied inhibitor concentrations (0.5–120 μM). The Ki values towards NADH were calculated using the uncompetitive equation (Eq. 2) for compounds Labio_6 and Labio_16, in which [I] is the inhibitor concentration, [S] is the substrate concentration, Km and Vmax are, respectively, the Michaelis-Menten constant and maximum velocity, and Kii is the overall inhibition constant for the ESI complex. The Ki of Labio_03 was determined previously.
For compounds Labio_2, Labio_11, Labio_15 and Labio_17, the Ki values with respect to NADH were calculated using Eq. 3, which describes a non-competitive inhibition, where [I] is the inhibitor concentration, [S] is the substrate concentration, Km and Vmax are, respectively, the Michaelis-Menten constant and maximum velocity, Kii is the overall inhibition constant for the ESI complex and Kis is the overall inhibition constant for the EI complex.
Inhibition studies were also carried out in the presence of fixed non-saturating concentration of NADH (60 μM) and fixed-varied inhibitor concentrations (0.5–120 μM), when DD-CoA was the variable substrate (15–135 μM). For compounds Labio_2, Labio_6, and Labio_16, the inhibition constants for the DD-CoA substrate were determined using Eq. 3 for the non-competitive mode of inhibition. For compounds Labio_11, Labio_15 and Labio_17, the Ki for this substrate were calculated from data fitting to the equation for competitive inhibition (Eq. 4), in which [I] is the inhibitor concentration, [S] is the substrate concentration, Km and Vmax are, respectively, the Michaelis-Menten constant and maximum velocity, and Kis is the overall inhibition constant for the EI complex.

M. tuberculosis H37Rv = experiment: microbe, parasite or virus in culture; type: cell-based; conditions: Mycobacterium tuberculosis
in vitro = type: cell-based, murine; conditions: mouse
Procedure: Cellular viability determination after incubation with the test compounds (Labio_16 and Labio_17) was performed essentially as described elsewhere. Briefly, Vero (and Hacat/RAW) cells were grown in DMEM media supplemented with 10% inactivated fetal bovine serum and 1% penicillin-streptomycin. The cells were maintained in culture bottles at 37 °C in humidified atmosphere with 5% CO2. Cells were seeded at 3 × 10^3 cells per well (for Hacat/RAW or Vero) in a 96-well microtiter plate and incubated for 24 hours to adhere. Medium was carefully aspirated and replaced with 90 μL DMEM, and 10 μL of stocks of the chemical compounds were added to a final concentration of 20 μM (DMSO 2.0%, v/v). After 72 h at 37 °C under 5% of CO2, the cultures were incubated with 3-(4,5-dimethylthiazol-2-yl)-2,5-diphenyltetrazolium bromide (MTT) (1 mg mL^−1) for 3 h. The formazan crystals were dried at room temperature for at least 24 h and dissolved in DMSO. The absorbance was measured at 595 nm (Spectra Max M2e, Molecular Devices, USA). The percentage of cell viability for treated groups was reported considering the control wells (DMSO 0.5%-treated) as 100% of cell viability: cell viability (%) = (absorbance of treated wells/absorbance of control wells) x 100. Data are expressed as mean of cell viability ± standard error of mean of three independent experiments performed in triplicate.

[1] = test system: M. tuberculosis H37Rv in infected RAW 264.7 macrophages; experiment: Intracellular activity in M. tuberculosis-infected macrophages (CFU); type: cell-based, Mycobacterium tuberculosis; conditions: 5 μM; for Mean log CFU/well ± SEM: 5 days of incubation; for nature of intracellular activity (bactericidal / bacteriostatic): 5 days, vs early and late control
Zebrafish embryos = conditions: zebrafish (Danio rerio)
Procedure: (§1) An HPLC equipped with a quaternary pump, DAD detector, degasser, column oven and an automatic injection system was used in this set of experiments (Thermo® Scientific, Sunnyvale, USA). Stock standard solutions (1 M) of Labio_16 and Labio_17 were prepared by diluting each standard in DMSO. Standard solutions were prepared by diluting the stock solution in fish water, yielding final concentrations of 0.625, 1.25, 2.50, 5.0 and 10.0 μM for Labio_16; and 0.625, 1.25, 2.50, 5.0, 10.0 and 20 μM for Labio_17 in a final volume of 0.5 mL.
(§2) Chromatographic separations were carried out using a Nucleodur C-18 column at 20 °C. The mobile phase was a 20:80% mixture of 0.1% glacial acetic acid and acetonitrile:methanol 1:1 (v/v) for Labio_16, and a mixture of 20:80% of 20 mM of ammonium acetate and acetonitrile:methanol 1:1 (v/v) for Labio_17. A flow rate of 1.5 mL min^−1 was employed in isocratic mode, with run time of 7 minutes for Labio_16 and 12 minutes for Labio_17. The DAD detector was set at 300 nm and a full scan was continuously performed. The calibration curve for both analytes presented a correlation coefficient above 0.99.

[2] = type: physicochemical
Procedure: as §1, §2

[3] = Ki DD-CoA Kis, varied DD-CoA 15–135 μM, fixed NADH 60 μM
[4] = varied NADH 10–160 μM, fixed DD-CoA 45 μM, ESI complex
[5] = 216 h, 7 days + 48 h resazurin, read-out: MIC H37Rv
[6] = conversion of μg mL^−1 value, read-out: MIC H37Rv converted to

Row | SMILES | IC50 (MtInhA) | Ki (MtInhA; [3]) | mode of inhibition with respect to NADH (MtInhA; fixed DD-CoA 45 μM) | mode of inhibition with respect to DD-CoA (MtInhA; fixed NADH 60 μM) | Ki DD-CoA Kii (MtInhA; varied DD-CoA 15–135 μM, fixed NADH 60 μM, ESI complex) | Ki NADH Kii (MtInhA; [4]) | MIC (M. tuberculosis H37Rv; [5]) | MIC (M. tuberculosis H37Rv; [6]) | viability at 72 h, 20 µM (in vitro) | Mean log CFU/well ± SEM [1] | nature of intracellular activity (bactericidal / bacteriostatic) [1] | decrease of compound in in vivo assay medium (Zebrafish embryos) | decrease in compound concentration in stability test [2] | Ki (MtInhA; Ki NADH Kis, varied NADH 10–160 μM, fixed DD-CoA 45 μM)
1 | Cc1ccccc1OCc1nc(-c2ccc(NC(=O)c3cccs3)cc2)no1 [Labio_16] | 24 ± 2 µM | 13 ± 1 µM | uncompetitive | non-competitive | 8 ± 3 µM | 7 ± 1 µM | 2.5 µg/mL | 6.4 µM | 91 ± 1% | 3.9 ± 0.1 log CFU/well | bacteriostatic | 55 ± 2% | 21% | –
2 | CCOC(=O)c1ccc2nc(C)cc(Nc3ccc(N4CCCCC4)cc3)c2c1 [Labio_17] | 20 ± 3 µM | 6.3 ± 0.7 µM | non-competitive | competitive | – | 8 ± 1 µM | 5 µg/mL | 12.8 µM | 98 ± 2% | 3.4 ± 0.1***^++ log CFU/well | bactericidal | 55 ± 2% | 21% | 8 ± 3 µM

From PMC5402281, “Functional, thermodynamics, structural and biological studies of in silico-identified inhibitors of Mycobacterium tuberculosis enoyl-ACP(CoA) reductase enzyme” (Scientific Reports, 2017)
